How the values were obtained:
factor Xa = experiment: In vitro inhibition of factor Xa (hydrolysis of Bz-Ile-Glu-Gly-Arg-pNa); format: biochemical, human; conditions: at 60 μM inhibitor; factor Xa 10 nM, Bz-Ile-Glu-Gly-Arg-pNa 26 μM, pH 7.5, 37° C.
Protocol: (§1) The ability of the compounds of the present invention to act as inhibitors of thrombin, factor Xa and plasmin catalytic activity was assessed by determining the concentration which inhibited enzyme activity by 50% using purified human enzymes. The concentration of added inhibitor that caused a 50% decrease in the initial rate of hydrolysis was defined as the IC50 value.
All assays are based on the ability of the test compound to inhibit the hydrolysis of a peptide p-nitroanilide substrate. In a typical experiment, appropriate substrate is prepared in DMSO, and diluted into an assay buffer consisting of 50ram HEPES and 130 mM NaCl at a pH of 7.5. The final concentration for each of the substrates is listed below. […]
In a typical IC50 determination, into each well of a 96 well plate is pipetted 280 uL of substrate solution, 10 μL of inhibitor solution, and the plate is allowed to thermally equilibrate at 37° C. in a Molecular Devices Plate Reader for at least 10 minutes. Reactions are initiated by the addition of a 20 μL aliquot of enzyme, and the absorbance increase at 405 nm is recorded for 15 minutes. […] The ratio of the velocity (rate of the change in absorbance as a function of time) for a sample containing no inhibitor is divided by the velocity of a sample containing inhibitor, and is plotted as a function of inhibitor concentration. […]

human α-thrombin = molecular target: T1, human α-thrombin (Homo sapiens, UniProt P00734); experiment: In vitro inhibition of purified thrombin (hydrolysis of Bz-Phe-Val-Arg-pNa); format: biochemical; conditions: for thrombin inhibition, potency and selectivity in words: conclusion from Table 1 (versus factor Xa and plasmin); for IC50: purified human α-thrombin 36 nM, Bz-Phe-Val-Arg-pNa 66 μM, pH 7.5, 37° C.
T1 construct: Purified human α-thrombin; purchased Enzyme Research Laboratories, Inc
Protocol: as §1
All assays are based on the ability of the test compound to inhibit the hydrolysis of a peptide p-nitroanilide substrate. In a typical experiment, appropriate substrate is prepared in DMSO, and diluted into an assay buffer consisting of 50ram HEPES and 130 mM NaCl at a pH of 7.5. The final concentration for each of the substrates is listed below. All substrate concentrations are at least 10 fold lower than Km to insure inhibition is competitive. Test compounds are prepared as 1 mg/ml solutions in DMSO, and three additional 10-fold dilutions in DMSO are prepared. Enzyme solutions are prepared at the concentrations listed below in assay buffer.
In a typical IC50 determination, into each well of a 96 well plate is pipetted 280 uL of substrate solution, 10 μL of inhibitor solution, and the plate is allowed to thermally equilibrate at 37° C. in a Molecular Devices Plate Reader for at least 10 minutes. Reactions are initiated by the addition of a 20 μL aliquot of enzyme, and the absorbance increase at 405 nm is recorded for 15 minutes. Data corresponding to less than 10% of the total substrate hydrolysis is used in the calculations. The ratio of the velocity (rate of the change in absorbance as a function of time) for a sample containing no inhibitor is divided by the velocity of a sample containing inhibitor, and is plotted as a function of inhibitor concentration. The inverse of the slope is the concentration of inhibitor which produces a 50% decrease in activity of the enzyme. This concentration is referred to as the IC50.
Thrombin activity was assessed as the ability to hydrolyse the substrate N-benzoyl-Phe-Val-Arg-p-nitroanilide (Bz-Phe-Val-Arg-pNa), and was obtained from Sigma Chemical Company (St. Louis, Mo.). Substrate solutions were prepared at a concentration of 60 μM (60 μM<<Km =1.2 mM) in assay buffer. Final DMSO concentration was 0.3%. Purified human α-thrombin was obtained from Enzyme Research Laboratories, Inc., and was diluted into assay buffer to a concentration of 1.2 μM. Final reagent concentrations were: [thrombin]=36 nM, [Bz-Phe-Val-Arg-pNa]=66 μM, [inhibitor]=60 to 0.06 μM.

IC50 (human α-thrombin) [µM]	Compound	Factor Xa % Inhibition at 60 μM (factor Xa) [%]	thrombin inhibition, potency and selectivity in words (human α-thrombin)
4.7	COc1cc(CNC(=O)[C@@H]2CCCN2C(=O)[C@H](N)Cc2ccccc2)ccc1O [Compound 7, D-phenylalanyl-N-[2-(4-hydroxy-3-methoxybenzyl)]-L-prolinamide]	0	highly selective and potent inhibitors of thrombin
2.8	Nc1ccc(CNC(=O)[C@@H]2CCCN2C(=O)[C@@H](Cc2ccccc2)NC(=O)OCc2ccccc2)cc1 [Compound 12, N-CBZ-D-phenylalanyl-N-[2-(4-aminobenzyl)]-L-prolinamide]		highly selective and potent inhibitors of thrombin
1	Nc1ccc(CNC(=O)[C@@H]2CCCN2C(=O)[C@H](N)Cc2ccccc2)cc1 [Compound 13, D-phenylalanyl-N-[2-(4-aminobenzyl)]-L-prolinamide]	0	highly selective and potent inhibitors of thrombin

Source: patent US5612369A, “Thrombin inhibitors” (3-Dimensional Pharmaceuticals, Inc., priority 1995, dated 1997)
